Our source for the IC50 values is US8188139B2, “Heterocyclic-substituted phenyl methanones” (Hoffman-La Roche Inc., priority 2005, dated 2012).

The target in this assay is T1, mGlyT-1b (Mus musculus, UniProt P28571).
T1 construct: host or cells: Flp-in-CHO
T1 sequence (P28571 1-651 isoform P28571-2): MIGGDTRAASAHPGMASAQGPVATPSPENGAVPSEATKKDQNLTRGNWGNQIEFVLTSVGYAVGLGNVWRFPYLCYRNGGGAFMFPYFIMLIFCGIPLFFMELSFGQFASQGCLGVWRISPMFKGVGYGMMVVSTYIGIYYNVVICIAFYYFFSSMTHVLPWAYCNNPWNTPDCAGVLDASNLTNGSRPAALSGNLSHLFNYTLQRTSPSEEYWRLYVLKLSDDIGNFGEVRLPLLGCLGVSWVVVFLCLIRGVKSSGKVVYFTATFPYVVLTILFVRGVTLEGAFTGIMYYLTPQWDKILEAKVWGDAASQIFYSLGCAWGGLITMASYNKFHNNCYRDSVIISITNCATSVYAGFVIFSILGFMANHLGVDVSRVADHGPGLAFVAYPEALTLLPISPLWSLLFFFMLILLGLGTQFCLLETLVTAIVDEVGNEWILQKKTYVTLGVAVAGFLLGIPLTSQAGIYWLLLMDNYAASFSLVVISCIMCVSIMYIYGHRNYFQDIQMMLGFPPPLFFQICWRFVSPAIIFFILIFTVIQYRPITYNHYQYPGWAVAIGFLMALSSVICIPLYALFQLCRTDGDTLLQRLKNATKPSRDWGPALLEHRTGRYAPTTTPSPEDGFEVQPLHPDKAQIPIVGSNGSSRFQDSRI
Put plainly: Glycine uptake inhibition assay (mGlyT-1b). It is filed as cell-based. The note with it: inhibition of [3H]-glycine uptake in Flp-in-CHO cells transfected with mGlyT-1b cDNA; 20 min preincubation at 22° C.; read-out: IC50 (μM) at GlyT-1. The method in brief:
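Flp-in CHO cells stably expressing mouse GlyT-1b were preincubated with inhibitor (concentration range) for 20 min at 22° C. in pH 7.4 uptake buffer; nonspecific uptake defined with 10 mM glycine. [3H]-glycine 60 nM plus 25 μM unlabelled glycine was then added; cell-associated radioactivity counted by scintillation and IC50 derived.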

For `CC(C)COc1ccc(S(C)(=O)=O)cc1C(=O)N1Cc2ccc(C3CCOCC3)cc2C1` [Example 270, (2-Isobutoxy-5-methanesulfonyl-phenyl)-[5-(tetrahydro-pyran-4-yl)-1,3-dihydro-isoindol-2-yl]-methanone], the IC50 came out at 0.035 µM.
The same measure for `CS(=O)(=O)c1ccc(OCC(F)(F)C(F)(F)F)c(C(=O)N2Cc3ccc(C4CCCOC4)cc3C2)c1` (racemic) [Example 364, rac-[5-Methanesulfonyl-2-(2,2,3,3,3-pentafluoro-propoxy)-phenyl]-[5-(tetrahydro-pyran-3-yl)-1,3-dihydro-isoindol-2-yl]-methanone]: 0.005 µM; for `C[C@H](Oc1ccc(S(C)(=O)=O)cc1C(=O)N1Cc2ccc(C3(F)COC3)cc2C1)C(F)(F)F` [Example 368, [5-(3-Fluoro-oxetan-3-yl)-1,3-dihydro-isoindol-2-yl]-[5-methanesulfonyl-2-((S)-2,2,2-trifluoro-1-methyl-ethoxy)-phenyl]-methanone]: 0.005 µM.
Take `Cc1nc2c(cc1C(F)(F)F)CN(C(=O)c1cc(S(C)(=O)=O)ccc1O[C@@H](C)C(F)(F)F)C2` [Example 163, [5-Methanesulfonyl-2-((S)-2,2,2-trifluoro-1-methyl-ethoxy)-phenyl]-(2-methyl-3-trifluoromethyl-5,7-dihydro-pyrrolo[3,4-b]pyridin-6-yl)-methanone]: the half-maximal inhibitory concentration (IC50) was 0.045 µM.
As for `CS(=O)(=O)c1ccc(-c2ccccc2)c(C(=O)N2CCc3c(C#N)cccc32)c1` [Example 204, 1-(4-Methanesulfonyl-biphenyl-2-carbonyl)-2,3-dihydro-1H-indole-4-carbonitrile], the IC50 is 0.019 µM.
Turning to `Cc1cc2c(cc1C(F)(F)F)CN(C(=O)c1cc(S(C)(=O)=O)ccc1O[C@@H](C)C(F)(F)F)C2` [Example 99, [5-Methanesulfonyl-2-((S)-2,2,2-trifluoro-1-methyl-ethoxy)-phenyl]-(5-methyl-6-trifluoromethyl-1,3-dihydro-isoindol-2-yl)-methanone], the IC50 is 0.042 µM.
The same measure for `C[C@H](Oc1ccc(S(C)(=O)=O)cc1C(=O)N1Cc2ccc(N3[C@@H]4CC[C@H]3COC4)cc2C1)C(F)(F)F` [Example 295, [5-Methanesulfonyl-2-((S)-2,2,2-trifluoro-1-methyl-ethoxy)-phenyl]-[(1R,5S)-5-(3-oxa-8-aza-bicyclo[3.2.1]oct-8-yl)-1,3-dihydro-isoindol-2-yl]-methanone]: 0.04 µM; for `C[C@H](Oc1ccc(S(C)(=O)=O)cc1C(=O)N1Cc2ccc(-c3ccccc3F)cc2C1)C(F)(F)F` [Example 335, [5-(2-Fluoro-phenyl)-1,3-dihydro-isoindol-2-yl]-[5-methanesulfonyl-2-(2,2,2-trifluoro-1-methyl-ethoxy)-phenyl]-methanone]: 0.031 µM.
In the case of `CS(=O)(=O)c1ccc(OCC2CCC2)c(C(=O)N2Cc3cc(Cl)c(N4CCOCC4)cc3C2)c1` [Example 249, (5-Chloro-6-morpho-lin-4-yl-1,3-dihydro-isoindol-2-yl)-(2-cyclobutylmethoxy-5-methanesulfonyl-phenyl)-methanone] it was 0.022 µM.
In the case of `CC(C)COc1ccc(S(C)(=O)=O)cc1C(=O)N1Cc2cc(Cl)c(N3CCOCC3)cc2C1` [Example 248, (5-Chloro-6-morpho-lin-4-yl-1,3-dihydro-isoindol-2-yl)-(2-isobutoxy-5-methanesulfonyl-phenyl)-methanone] it was 0.026 µM.
`C[C@H](Oc1ccc(S(C)(=O)=O)cc1C(=O)N1Cc2ccc(OC(F)(F)F)cc2C1)C(F)(F)F` [Example 103, [5-Methanesulfonyl-2-((S)-2,2,2-trifluoro-1-methyl-ethoxy)-phenyl]-(5-trifluoro-methoxy-1,3-dihydro-isoindol-2-yl)-methanone]: the IC50 was 0.046 µM.
Consider `CS(=O)(=O)c1ccc(OCC2CC2)c(C(=O)N2Cc3ccc(C4CCOCC4)cc3C2)c1` [Example 271, (2-Cyclopropyl-methoxy-5-methane-sulfonyl-phenyl)-[5-(tetrahydro-pyran-4-yl)-1,3-dihydro-isoindol-2-yl]-methanone], for which the concentration for half-maximal inhibition (IC50) came out at 0.029 µM.
The same measure for `C[C@H](Oc1ccc(S(C)(=O)=O)cc1C(=O)N1Cc2cc(Cl)c(N3C[C@@H]4C[C@H]3CO4)cc2C1)C(F)(F)F` [Example 365, ((1S,4S)-5-Chloro-6-2-oxa-5-aza-bicyclo[2.2.1]hept-5-yl-1,3-dihydro-isoindol-2-yl)-[5-methanesulfonyl-2-((S)-2,2,2-trifluoro-1-methyl-ethoxy)-phenyl]-methanone]: 0.033 µM; for `C[C@H](Oc1ccc(S(C)(=O)=O)cc1C(=O)N1Cc2cc(Cl)c(C3CCOCC3)cc2C1)C(F)(F)F` [Example 305, [5-Chloro-6-(tetra-hydro-pyran-4-yl)-1,3-dihydro-isoindol-2-yl]-[5-methane-sulfonyl-2-((S)-2,2,2-trifluoro-1-methyl-ethoxy)-phenyl]-methanone]: 0.037 µM; for `CC(C)Oc1ccc(S(C)(=O)=O)cc1C(=O)N1Cc2ccc(C3CCOC3)cc2C1` (racemic) [Example 360, rac-(2-Isopropoxy-5-methanesulfonyl-phenyl)-[5-(tetrahydro-furan-3-yl)-1,3-dihydro-isoindol-2-yl]-methanone]: 0.022 µM.
As to `C[C@H](Oc1ccc(S(C)(=O)=O)cc1C(=O)N1Cc2ccc(OC3CCOCC3)cc2C1)C(F)(F)F` [Example 367, [5-Methanesulfonyl-2-((S)-2,2,2-trifluoro-1-methyl-ethoxy)-phenyl]-[5-(tetrahydro-pyran-4-yloxy)-1,3-dihydro-isoindol-2-yl]-methanone], the IC50 was determined as 0.0015 µM.
In the case of `COc1ccc2c(c1)CN(C(=O)c1cc(S(C)(=O)=O)ccc1OC(C)C)C2` [Example 74, (2-Isopropoxy-5-methanesulfonyl-phenyl)-(5-methoxy-1,3-dihydro-isoindol-2-yl)-methanone] it was 0.031 µM; in that of `C[C@H](Oc1ccc(S(C)(=O)=O)cc1C(=O)N1Cc2cc(Cl)c(C3CCOC3)cc2C1)C(F)(F)F` (mixture of isomers) [Example 359, [5-Chloro-6-(tetrahydro-furan-3-yl)-1,3-dihydro-isoindol-2-yl]-[5-methanesulfonyl-2-((S)-2,2,2-trifluoro-1-methyl-ethoxy)-phenyl]-methanone], 0.01 µM; in that of `CCSc1ccc2c(c1)CN(C(=O)c1cc(S(C)(=O)=O)ccc1O[C@@H](C)C(F)(F)F)C2` [Example 32, (5-Ethylsulfanyl-1,3-dihydro-isoindol-2-yl)-[5-methanesulfonyl-2-((S)-2,2,2-trifluoro-1-methyl-ethoxy)-phenyl]-methanone], 0.037 µM.
Take `C[C@@H](Oc1ccc(S(C)(=O)=O)cc1C(=O)N1Cc2cc(C(F)(F)F)cnc2C1)C(F)(F)F` [Example 139, [5-Methanesulfonyl-2-((R)-2,2,2-trifluoro-1-methyl-ethoxy)-phenyl]-(3-trifluoro-methyl-5,7-dihydro-pyrrolo[3,4-b]pyridin-6-yl)-methanone]: the IC50 was 0.014 µM.
The same measure for `C[C@H](Oc1ccc(S(C)(=O)=O)cc1C(=O)N1Cc2cnc(-c3ccc(F)cc3)cc2C1)C(F)(F)F` [Example 321, [6-(4-Fluoro-phenyl)-1,3-dihydro-pyrrolo[3,4-c]pyridin-2-yl]-[5-methanesulfonyl-2-((S)-2,2,2-trifluoro-1-methyl-ethoxy)-phenyl]-methanone]: 0.034 µM; for `COc1cccc(-c2ccc3c(c2)CN(C(=O)c2cc(S(C)(=O)=O)ccc2O[C@@H](C)C(F)(F)F)C3)c1` [Example 340, [5-Methanesulfonyl-2-(2,2,2-trifluoro-1-methyl-ethoxy)-phenyl]-[5-(3-methoxy-phenyl)-1,3-dihydro-isoindol-2-yl]-methanone]: 0.025 µM.

Usually IC50 stands for the concentration needed to halve the response being measured.
